Laboratory results taken from patent US20060116390A1, “Hepatitis c virus inhibitors” (priority 2003, published 2006).
pIC50: −log10 of the molar value. Like-named read-outs stand apart in the source and are kept apart here.

Test system: HCV proteins in Rep5.1 cells (replicon cell line)
Assay: Inhibitory activity of HCV: cell-based ELISA in replicon cell line Rep5.1 (decrease of HCV proteins)
Parameters: species or system hepatitis C virus
Settings: Hepatitis C virus, 72 h, Rep5.1 cells, 72 hours with drug
Procedure, shortened: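 Rep5.1 replicon cells (5000/well, DMEM-10 with 500 μg/ml G418) were given serially diluted drug 4 h after seeding. After 72 h, cells were fixed in methanol/acetone and HCV proteins detected by cell-based ELISA using replicon-specific patient plasma antibodies. IC50 is the concentration giving 50% protein decrease versus the no-drug control.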

[1] = concentration at which 50% of HCV proteins was decreased, Table 2, read-out: IC50
[2] = decrease of HCV proteins measured by HCV antibody, Table 1, read-out: Level (IC50 values classified)

Structure (SMILES) | pIC50 [1] | pIC50 [2]
CC1=C(C(=O)OCC2(c3ccc(Cl)cc3)CC2)C(CO)NC(=S)N1 (centres unmarked) [52″, 4-hydroxymethyl-6-methyl-2-thioxo-1,2,3,4-tetrahydro-pyrimidine-5-carboxylic acid 1-(4-chloro-phenyl)-cyclopropylmethyl ester] | 5.00 | 5.00 to 6.00
CCc1ccc(CCOC(=O)C2=C(C)NC(=S)NC2)s1 [Compound 266, 6-methyl-2-thioxo-1,2,3,4-tetrahydro-pyrimidine-5-carboxylic acid 2-(5-ethyl-thiophen-2-yl)-ethyl ester] | 6.22 | > 6.00
CC1=C(C(=O)OCc2ccc(-c3cc(C(F)(F)F)n(C)n3)s2)CNC(=S)N1 [Compound 222, 6-methyl-2-thioxo-1,2,3,4-tetrahydro-pyrimidine-5-carboxylic acid 5-(1-methyl-5-trifluoromethyl-1H-pyrazol-3-yl)-thiophen-2-ylmethyl ester] | > 6.40 | > 6.00
CC1=C(C(=O)OCCC2CC2)CNC(=S)N1 [2′, 6-methyl-2-thioxo-1,2,3,4-tetrahydro-pyrimidine-5-carboxylic acid 2-cyclopropyl-ethyl ester] | 5.62 | 5.00 to 6.00
CC1=C(C(=O)OCc2cc(C)ccc2C)CNC(=S)N1 [Compound 149, 6-methyl-2-thioxo-1,2,3,4-tetrahydro-pyrimidine-5-carboxylic acid 2,5-dimethyl-benzyl ester] | > 6.40 | > 6.00
CCN(CCOC(=O)C1=C(C)NC(=S)NC1)c1cccc(C)c1 [Compound 59, 6-methyl-2-thioxo-1,2,3,4-tetrahydro-pyrimidine-5-carboxylic acid 2-(ethyl-m-tolyl-amino)-ethyl ester] | 5.52 | 5.00 to 6.00
CC1=C(C(=O)OCC=Cc2ccsc2)C(CF)NC(=S)N1 (centres unmarked) [Compound 269, 4-fluoromethyl-6-methyl-2-thioxo-1,2,3,4-tetrahydro-pyrimidine-5-carboxylic acid 3-thiophen-3-yl-allyl ester] | 5.30 | 5.00 to 6.00
CC1=C(C(=O)OCCc2ccc(N(C)C)cc2)C(CO)NC(=S)N1 (centres unmarked) [12″, 4-hydroxymethyl-6-methyl-2-thioxo-1,2,3,4-tetrahydro-pyrimidine-5-carboxylic acid 2-(4-dimethylamino-phenyl)-ethyl ester] | 4.51 | < 4.70
CCCCCCOC(=O)C1=C(C)NC(=S)NC1 [Compound 30, 6-methyl-2-thioxo-1,2,3,4-tetrahydro-pyrimidine-5-carboxylic acid hexyl ester] | 7.00 | > 6.00
CC1=C(C(=O)OCC2CCOC2)CNC(=S)N1 (centres unmarked) [Compound 162, 6-methyl-2-thioxo-1,2,3,4-tetrahydro-pyrimidine-5-carboxylic acid tetrahydrofuran-3-ylmethyl ester] | < 4.00 | < 4.70
CC1=C(C(=O)OCCc2ccsc2)C(CO)NC(=S)N1 (centres unmarked) [3″, 4-hydroxymethyl-6-methyl-2-thioxo-1,2,3,4-tetrahydro-pyrimidine-5-carboxylic acid 2-thiophen-3-yl-ethyl ester] | 5.05 | 5.00 to 6.00
CCNC(=O)OCC1NC(=S)NC(C)=C1C(=O)OCCCc1cccs1 (centres unmarked) [20″, 4-ethylcarbamoyloxymethyl-6-methyl-2-thioxo-1,2,3,4-tetrahydro-pyrimidine-5-carboxylic acid 3-thiophen-2-yl-propyl ester] | 4.48 | < 4.70
COc1ccc(COC(=O)C2=C(C)NC(=S)NC2)cc1Br [Compound 141, 6-methyl-2-thioxo-1,2,3,4-tetrahydro-pyrimidine-5-carboxylic acid 3-bromo-4-methoxy-benzyl ester] | 6.15 | > 6.00
CCOc1ccccc1COC(=O)C1=C(C)NC(=S)NC1 [Compound 66, 6-methyl-2-thioxo-1,2,3,4-tetrahydro-pyrimidine-5-carboxylic acid 2-ethoxy-benzyl ester] | 6.30 | > 6.00
CC1=C(C(=O)OCc2ccc3nnn(C)c3c2)CNC(=S)N1 [Compound 242, 6-methyl-2-thioxo-1,2,3,4-tetrahydro-pyrimidine-5-carboxylic acid 3-methyl-3H-benzotriazol-5-ylmethyl ester] | 4.20 | < 4.70
CC1=C(C(=O)OC(C)Cc2ccsc2)CNC(=S)N1 (centres unmarked) [Compound 255, 6-methyl-2-thioxo-1,2,3,4-tetrahydro-pyrimidine-5-carboxylic acid 2-thiophen-3-yl-1-methyl-ethyl ester] | 5.70 | 5.00 to 6.00
CC1=C(C(=O)OCC(F)(F)c2ccsc2)CNC(=S)N1 [71′, 6-methyl-2-thioxo-1,2,3,4-tetrahydro-pyrimidine-5-carboxylic acid 2,2-difluoro-2-thiophen-3-yl-ethyl ester] | 6.22 | > 6.00

Structure (SMILES) | pIC50 [1] | pIC50 [2]
CCc1ccc(CCOC(=O)C2=C(C)NC(=S)NC2CF)o1 (centres unmarked) [23′, 4-fluoromethyl-6-methyl-2-thioxo-1,2,3,4-tetrahydro-pyrimidine-5-carboxylic acid 2-(5-ethyl-furan-2-yl)-ethyl ester] | 6.15 | > 6.00
COc1cscc1CCOC(=O)C1=C(C)NC(=S)NC1CF (centres unmarked) [41′, 4-fluoromethyl-6-methyl-2-thioxo-1,2,3,4-tetrahydro-pyrimidine-5-carboxylic acid 2-(4-methoxy-thiophen-3-yl)-ethyl ester] | 4.82 | 4.70 to 5.00
COC(=O)C1=C(C(=O)OCc2ccccc2)CNC(=S)N1 [Compound 196, 2-thioxo-1,2,3,6-tetrahydro-pyrimidine-4,5-dicarboxylic acid 5-benzyl ester 4-methyl ester] | 4.37 | < 4.70
CC(=O)OCC1NC(=S)NC(C)=C1C(=O)OCCCc1ccsc1 (centres unmarked) [22″, 4-acetoxymethyl-6-methyl-2-thioxo-1,2,3,4-tetrahydro-pyrimidine-5-carboxylic acid 3-thiophen-3-yl-propyl ester] | 4.37 | < 4.70
CSc1ccc(CCCOC(=O)C2=C(C)NC(=S)NC2)cc1 [Compound 105, 6-methyl-2-thioxo-1,2,3,4-tetrahydro-pyrimidine-5-carboxylic acid 3-(4-methylsulfanyl-phenyl)-propyl ester] | > 6.40 | > 6.00
CC1=C(C(=O)OCc2c(C)cccc2C)CNC(=S)N1 [Compound 184, 6-methyl-2-thioxo-1,2,3,4-tetrahydro-pyrimidine-5-carboxylic acid 2,6-dimethyl-benzyl ester] | 4.72 | 4.70 to 5.00
CC1=C(C(=O)OCCCc2ccccc2)C(CF)NC(=S)N1 (centres unmarked) [31′, 4-fluoromethyl-6-methyl-2-thioxo-1,2,3,4-tetrahydro-pyrimidine-5-carboxylic acid 3-phenyl-propyl ester] | 6.40 | > 6.00
CC1=C(C(=O)OCCc2cccc(C)c2)C(CO)NC(=S)N1 (centres unmarked) [64″, 4-hydroxymethyl-6-methyl-2-thioxo-1,2,3,4-tetrahydro-pyrimidine-5-carboxylic acid 2-m-tolyl-ethyl ester] | 5.26 | 5.00 to 6.00
CC1=C(C(=O)OCc2ccc(F)cc2F)CNC(=S)N1 [Compound 69, 6-methyl-2-thioxo-1,2,3,4-tetrahydro-pyrimidine-5-carboxylic acid 2,4-difluoro-benzyl ester] | 5.92 | 5.00 to 6.00
CC1=C(C(=O)OCc2ccc(Cl)cc2)CNC(=S)N1 [Compound 43, 6-methyl-2-thioxo-1,2,3,4-tetrahydro-pyrimidine-5-carboxylic acid 4-chloro-benzyl ester] | > 6.40 | > 6.00
COc1ccc(CCOC(=O)C2=C(C)NC(=S)NC2)cc1 [Compound 92, 6-methyl-2-thioxo-1,2,3,4-tetrahydro-pyrimidine-5-carboxylic acid 2-(4-methoxy-phenyl)-ethyl ester] | 6.00 | > 6.00
CC1=C(C(=O)OCc2scc(C)c2Cl)C(CF)NC(=S)N1 (centres unmarked) [15′, 4-fluoromethyl-6-methyl-2-thioxo-1,2,3,4-tetrahydro-pyrimidine-5-carboxylic acid 3-chloro-4-methyl-thiophen-2-ylmethyl ester] | 6.00 | > 6.00
CC1=C(C(=O)OCc2ccc(C)c(C)c2)CNC(=S)N1 [Compound 76, 6-methyl-2-thioxo-1,2,3,4-tetrahydro-pyrimidine-5-carboxylic acid 3,4-dimethyl-benzyl ester] | 6.22 | > 6.00
CC1=C(C(=O)OCc2cc(Cl)cc(Cl)c2)C(COS(C)(=O)=O)NC(=S)N1 (centres unmarked) [50″, 4-methanesulfonyloxymethyl-6-methyl-2-thioxo-1,2,3,4-tetrahydro-pyrimidine-5-carboxylic acid 3,5-dichloro-benzyl ester] | 4.17 | < 4.70
CC1=C(C(=O)OCc2cc([N+](=O)[O-])ccc2Cl)C(CF)NC(=S)N1 (centres unmarked) [83′, 4-fluoromethyl-6-methyl-2-thioxo-1,2,3,4-tetrahydro-pyrimidine-5-carboxylic acid 2-chloro-5-nitro-benzyl ester] | 5.24 | 5.00 to 6.00
CC1=C(C(=O)OCCc2ccsc2Br)C(CO)NC(=S)N1 (centres unmarked) [10″, 4-hydroxymethyl-6-methyl-2-thioxo-1,2,3,4-tetrahydro-pyrimidine-5-carboxylic acid 2-(2-bromo-thiophen-3-yl)-ethyl ester] | 5.15 | 5.00 to 6.00
CSc1ccc(CCOC(=O)C2=C(C)NC(=S)NC2CO)cc1 (centres unmarked) [45″, 4-hydroxymethyl-6-methyl-2-thioxo-1,2,3,4-tetrahydro-pyrimidine-5-carboxylic acid 2-(4-methylsulfanyl-phenyl)-ethyl ester] | 5.57 | 5.00 to 6.00
